Data reported in patent publication US20100280600A1, “DUAL DRUG STENT” (priority 2009, published 2010).

Key:
[1] = Porcine drug elution PK study of dual drug eluting coating; format: in vivo; conditions: after 8 days of implantation, FIG. 11 stent (sirolimus + cilostazol in one EVA/BMA layer, 100 μg BMA overcoat)
Text: Another critical parameter for the performance of the thrombus resistance of a device coated with cilostazol is the duration of the drug release from the coating. This is of particular significance in the two weeks after device implantation. In the porcine drug elution PK studies of the dual drug eluting coating, both cilostazol and sirolius were slowly released from the coating, resulting in a sustained drug release profile. The purpose of the porcine PK study is to assess the local pharmacokinetics of a drug eluting stent at a given implantation time. Normally three stents are implanted in three different coronary arteries in a pig for a given time point and then retrieved for total drug recovery analysis. The stents are retrieved at predetermined time points; namely, 1, 3 and 8 days. The stents are extracted and the total amount of drug remaining on the stents is determined by analysis utilizing HPLC (high performance liquid chromatography) for total drug amount. The difference between the original amount of drug on the stent and the amount of drug retrieved at a given time represents the amount of drug released in that period. The continuous release of drug into surrounding arterial tissue is what prevents the neointimal growth and restenosis in the coronary artery. A normal plot represents the percentage of total drug released (%, y-axis) vs. time of implantation (day, x-axis). […]

[2] = In vitro release kinetics of sirolimus and cilostazol from coated stents; format: physicochemical
[3] = Cumulative in vivo drug release from reservoir dual drug eluting stent; conditions: 30 days; compared to cilostazol
Text: Referring to FIG. 29, there is illustrated the cumulative in vivo drug release percentages for each drug over a thirty day period. Curve 2902 represents the profile for cilostazol while curve 2904 represents the profile for sirolimus. FIG. 30 is a graphical representation of the amount of each drug, in micrograms, released in vivo. Curve 3002 represents the profile for cilostazol while curve 3004 represents the profile for sirolimus. The curves in the figures illustrate that both the drugs elute independently of each other with minimal or substantially no interaction. […] Since the amount of drug (by weight) is different for the drugs in their respective reservoirs, the total amount of drug released at thirty (30) days was higher for sirolimus as compared to cilostazol.

Row | SMILES | drug remained in the drug coating [1] [%] | in vitro drug release rate ([2]; 200 μg BMA diffusion overcoat (FIG. 4) versus 100 μg (FIG. 6)) | in vitro release ([2]; FIG. 11 stent (sirolimus + cilostazol in one EVA/BMA layer, 100 μg BMA overcoat), FIG. 10) [%] | total amount of drug released (by weight) [3]
1 | O=C1CCc2cc(OCCCCc3nnnn3C3CCCCC3)ccc2N1 [cilostazol, 6[4-(1-cyclohexyl-1H-tetrazol-5-yl)-butoxy]-3,4-dihydro-2-(1H)-quinolinone] | ~80 | comparatively slower | ~35 | 
2 | CO[C@H]1C[C@@H]2CC[C@@H](C)[C@@](O)(O2)C(=O)C(=O)N2CCCC[C@H]2C(=O)O[C@H]([C@H](C)C[C@@H]2CC[C@@H](O)[C@H](OC)C2)CC(=O)[C@H](C)/C=C(\C)[C@@H](O)[C@@H](OC)C(=O)[C@H](C)C[C@H](C)/C=C/C=C/C=C/1C [rapamycin] | ~80 |  |  | higher
